Assay results published in the CheMixHub viscosity set.

Assay: xn = mol fraction of the nth substance listed

ClC(Cl)(Cl)Cl + Cc1ccccc1
viscosity [mPa·s], 101 kPa
Conditions | 293.15 K | 298.15 K | 303.15 K | 313.15 K
x1 = 0.1022 | 0.6227 | 0.5867 | 0.5527 | 0.4932
x1 = 0.1977 | 0.6508 | 0.6111 | 0.5749 | 0.5126
x1 = 0.3029 | 0.6875 | 0.6446 | 0.606 | 0.5394
x1 = 0.4043 | 0.7215 | 0.6753 | 0.634 | 0.5628
x1 = 0.4982 | 0.7585 | 0.712 | 0.6656 | 0.5897
x1 = 0.5988 | 0.7983 | 0.7461 | 0.6988 | 0.6181
x1 = 0.7091 | 0.8428 | 0.7861 | 0.7353 | 0.6485
x1 = 0.8107 | 0.8905 | 0.8298 | 0.7755 | 0.6831
x1 = 0.916 | 0.9415 | 0.88 | 0.8249 | 0.719
x2 = 0.1 | – | 0.8643 | – | –
x2 = 0.2 | – | 0.8211 | – | –
x2 = 0.3 | – | 0.7802 | – | –
x2 = 0.4 | – | 0.7415 | – | –
x2 = 0.5 | – | 0.7049 | – | –
x2 = 0.6 | – | 0.6705 | – | –
x2 = 0.7 | – | 0.6381 | – | –
x2 = 0.8 | – | 0.6078 | – | –
x2 = 0.9 | – | 0.5794 | – | –

ClC(Cl)(Cl)Cl + CN(C)C=O
viscosity [mPa·s], 101.3 kPa
Conditions | x1 = 0.1208 | x1 = 0.129 | x1 = 0.2535 | x1 = 0.2556 | x1 = 0.4423 | x1 = 0.4437 | x1 = 0.5937 | x1 = 0.595 | x1 = 0.8073 | x1 = 0.8235
298 K | – | 0.879 | – | 0.918 | – | 0.958 | – | 0.966 | 0.949 | –
318 K | 0.6789 | – | 0.7118 | – | 0.745 | – | 0.7608 | – | – | 0.7506

ClC(Cl)(Cl)Cl + CCC(C)=O
Conditions | viscosity [mPa·s]
298 K, 101.3 kPa, x1 = 0.1477 | 0.485
298 K, 101.3 kPa, x1 = 0.2858 | 0.543
298 K, 101.3 kPa, x1 = 0.4787 | 0.648
298 K, 101.3 kPa, x1 = 0.629 | 0.697
298 K, 101.3 kPa, x1 = 0.8296 | 0.792
298.15 K, 101.33 kPa, x2 = 0.1954 | 0.736
298.15 K, 101.33 kPa, x2 = 0.397 | 0.623
298.15 K, 101.33 kPa, x2 = 0.405 | 0.62
298.15 K, 101.33 kPa, x2 = 0.499 | 0.576
298.15 K, 101.33 kPa, x2 = 0.509 | 0.576
298.15 K, 101.33 kPa, x2 = 0.745 | 0.483
298.15 K, 101.33 kPa, x2 = 0.752 | 0.472
318 K, 101.3 kPa, x1 = 0.1385 | 0.3877
318 K, 101.3 kPa, x1 = 0.2858 | 0.4379
318 K, 101.3 kPa, x1 = 0.4821 | 0.5052
318 K, 101.3 kPa, x1 = 0.6311 | 0.5625
318 K, 101.3 kPa, x1 = 0.8418 | 0.6572

ClC(Cl)(Cl)Cl + CCCCO
Conditions | viscosity [mPa·s]
298.15 K, 101 kPa, x2 = 0.0326 | 0.903
298.15 K, 101 kPa, x2 = 0.0846 | 0.92
298.15 K, 101 kPa, x2 = 0.1 | 0.918
298.15 K, 101 kPa, x2 = 0.19 | 0.975
298.15 K, 101 kPa, x2 = 0.2668 | 1.058
298.15 K, 101 kPa, x2 = 0.27 | 1.046
298.15 K, 101 kPa, x2 = 0.34 | 1.135
298.15 K, 101 kPa, x2 = 0.425 | 1.293
298.15 K, 101 kPa, x2 = 0.4916 | 1.42
298.15 K, 101 kPa, x2 = 0.58 | 1.56
298.15 K, 101 kPa, x2 = 0.629 | 1.778
298.15 K, 101 kPa, x2 = 0.67 | 1.794
298.15 K, 101 kPa, x2 = 0.6978 | 1.88
298.15 K, 101 kPa, x2 = 0.76 | 1.979
298.15 K, 101 kPa, x2 = 0.7789 | 2.078
298.15 K, 101 kPa, x2 = 0.836 | 2.291
298.15 K, 101 kPa, x2 = 0.89 | 2.325
298.15 K, 101.32 kPa, x2 = 0.09917 | 0.919
298.15 K, 101.32 kPa, x2 = 0.1956 | 0.972
298.15 K, 101.32 kPa, x2 = 0.3011 | 1.074
298.15 K, 101.32 kPa, x2 = 0.3746 | 1.163
298.15 K, 101.32 kPa, x2 = 0.5434 | 1.464
298.15 K, 101.32 kPa, x2 = 0.5847 | 1.552
298.15 K, 101.32 kPa, x2 = 0.687 | 1.806
298.15 K, 101.32 kPa, x2 = 0.7888 | 2.065
298.15 K, 101.32 kPa, x2 = 0.8923 | 2.329
303.15 K, 101 kPa, x2 = 0.0559 | 0.8424
303.15 K, 101 kPa, x2 = 0.057 | 0.8423
303.15 K, 101 kPa, x2 = 0.1084 | 0.8543
303.15 K, 101 kPa, x2 = 0.1137 | 0.856
303.15 K, 101 kPa, x2 = 0.1851 | 0.8882
303.15 K, 101 kPa, x2 = 0.1887 | 0.8907
303.15 K, 101 kPa, x2 = 0.2871 | 0.9679
303.15 K, 101 kPa, x2 = 0.3823 | 1.076
303.15 K, 101 kPa, x2 = 0.4772 | 1.215
303.15 K, 101 kPa, x2 = 0.5086 | 1.268
303.15 K, 101 kPa, x2 = 0.6468 | 1.527
303.15 K, 101 kPa, x2 = 0.6792 | 1.593
303.15 K, 101 kPa, x2 = 0.7591 | 1.764
303.15 K, 101 kPa, x2 = 0.8416 | 1.943
303.15 K, 101 kPa, x2 = 0.893 | 2.054
303.15 K, 101 kPa, x2 = 0.9516 | 2.176
303.15 K, 101 kPa, x2 = 0.9563 | 2.186
303.15 K, 101.3 kPa, x1 = 0.7915 | 1.005
308.15 K, 101 kPa, x2 = 0.0846 | 0.801
308.15 K, 101 kPa, x2 = 0.2668 | 0.902
308.15 K, 101 kPa, x2 = 0.629 | 1.372
308.15 K, 101 kPa, x2 = 0.6978 | 1.487
308.15 K, 101 kPa, x2 = 0.7789 | 1.647
308.15 K, 101 kPa, x2 = 0.836 | 1.76
318.15 K, 101 kPa, x2 = 0.0326 | 0.684
318.15 K, 101 kPa, x2 = 0.0846 | 0.692
318.15 K, 101 kPa, x2 = 0.2668 | 0.773
318.15 K, 101 kPa, x2 = 0.425 | 0.883
318.15 K, 101 kPa, x2 = 0.4916 | 0.95
318.15 K, 101 kPa, x2 = 0.629 | 1.116
318.15 K, 101 kPa, x2 = 0.6978 | 1.189
318.15 K, 101 kPa, x2 = 0.7789 | 1.313
318.15 K, 101 kPa, x2 = 0.836 | 1.416
